Experimental data taken from patent US20020161007A1, “Non-steroidal modulators of estrogen receptors” (priority 2001, published 2002).
Like-named read-outs stand apart in the source and are kept apart here.

Experiments:
[1] = test system: human breast tumor MCF-7 cell line; test: MTT antiproliferative assay on human MCF-7 cell line; assay type: cell-based; details: for IC50: MTT inhibition of proliferation, mean of triplicate determinations; for % Cell viability: 72 h, MTT, MCF-7
Text: EXAMPLE 14—Determination of the antiproliferative effects on human MCF-7 cell lines.
MTT is a yellow tetrazolium salt which is taken up only by metabolically active cells and subsequently cleaved by mitochondrial dehydrogenases to yield a purple crystalline formazan dye. On solubilisation this purple color may be read spectrophotometrically at 570 nm. The absorbance measured at this wavelength is directly proportional to the amount of viable cells present.
Procedure : The human breast tumor MCF-7 cell line was cultured in Eagles minimum essential medium in a 5% CO2 atmosphere with 10% fetal calf serum. The medium was supplemented with 1% non-essential amino acids. The cells were trypsinized and seeded at a density of 1.5×10^4 into a 96-well plate and incubated at 37° C., 5% CO2 atmosphere for 24 h. […] Control wells contained the equivalent volume of the vehicle ethanol (1% v/v). The culture medium was then removed and the cells washed with 100 μl PBS and 50 μl MTT added, to reach a final concentration of 1 mg/ml MTT added. The cells were incubated for 2 h in darkness at […]. At this point solubilisation was begun through the addition of 200 μl DMSO and the cells maintained at room temperature in darkness for 20 min to ensure thorough color diffusion before reading the absorbance. The absorbance value of control cells (no added compound) was set to 100% cell viability. Graphs of absorbance versus cell density per well were prepared to assess cell viability.

[2] = test system: human MCF-7 breast cancer cells; test: LDH release cytotoxicity assay on human MCF-7 cells; assay type: cell-based; details: 72 h
Text: EXAMPLE 15—Determination of the cytotoxic effects on human MCF-7 cell lines.
Lactate dehydrogenase (LDH) is a cytosolic enzyme released upon cell lysis (death). Through the use of a commercial LDH assay kit, released LDH converts a substrate tetrazolium salt into a soluble red formazan product. The absorbance of this dye can be measured directly at 490 nm, the color formed is proportional to the number of lysed cells, and as such the extent of cytotoxic activity for the compound added may be assessed.
Procedure : As with the cell proliferation assay, human MCF-7 breast cancer cells were plated at a density of 1.5×10^4 per well in a 96-well plate, then incubated at 37° C., 5% CO2 atmosphere for 24 h. The cells were treated with the compound of choice at varying concentrations (1nM-100 μM), then incubated for a further 72 h. Following incubation 50 μl aliquots of medium were removed to a fresh 96-well plate. A 50 μl per well LDH substrate mixture was added and the plate left in darkness at room temperature for 30 minutes. Stop solution (50 μl) was added to all wells before reading the absorbance at 490 nm. A control of 100% lysis was determined for a set of untreated cells which were lysed through the addition of 20 μl lysis solution to the media 45 min prior to harvesting.

[3] = Homo sapiens, MCF7, read-out: IC50 Range
[4] = Homo sapiens, MCF7, read-out: IC50

| IC50 ([1]; read-out: IC50 Range) [µM] | IC50 [1, 4] [µM] | Compound | further results |
| --- | --- | --- | --- |
| 65 to 70 | – | 1,2-Diphenyl-2-[(4-pipyridinylethoxy)benzyl]but-1-ene [Compound 19] | – |
| – | – | CCC(Cc1ccccc1)=C(c1ccccc1)c1ccc(OCCN(CC)CC)cc1 [Compound 2, 2-Benzyl-1-phenyl-1-[4-(diethylaminoethoxy)phenyl]but-1-ene] | IC50 [1, 3]: 10 to 15 µM |
| 1 to 5 | – | CCC(Cc1ccccc1)=C(c1ccccc1)c1ccc(OCCN2CCCC2)cc1 [Compound 3, 2-Benzyl-1-phenyl-1-[4-(pyrrolidinylethoxy)phenyl]but-1-ene] | – |
| 1 to 5 | – | CCC(Cc1ccccc1)=C(c1ccccc1)c1ccc(OCCN2CCCCC2)cc1 [Compound 4, 2-Benzyl-1-phenyl-1-[4-(pipyridinylethoxy)phenyl]but-1-ene] | % Cytotoxicity ([2]; 1 nM): 3.67%; % Cytotoxicity ([2]; 10 μM): 34.76%; % Cytotoxicity ([2]; 50 μM): 49.44%; % Cytotoxicity ([2]; 100 μM): 49.14%; % Cell viability ([1]; 1 nM): 103.8%; % Cell viability ([1]; 10 nM): 100.3%; % Cell viability ([1]; 100 nM): 91.14%; % Cell viability ([1]; 1 μM): 85.13%; % Cell viability ([1]; 10 μM): 29.11%; % Cell viability ([1]; 50 μM): 1.58%; % Cell viability ([1]; 100 μM): 1.27% |
| 40 to 50 | – | CCC(Cc1ccccc1)=C(c1ccccc1)c1ccc(OCCN2CCOCC2)cc1 [Compound 5, 2-Benzyl-1-phenyl-1-[4-(morpholinylethoxy)phenyl]but-1-ene] | – |
| 15 to 20 | – | CCC(=C(Cc1ccccc1)c1ccc(OCCN(CC)CC)cc1)c1ccccc1 [Compound 7, 1-Benzyl-2-phenyl-[1-(4-diethylaminoethoxy)phenyl]-but-1-ene] | – |
| – | – | CC/C(=C(\Cc1ccccc1)c1ccc(OCCN2CCCC2)cc1)c1ccccc1 [Compound 8, 1-Benzyl-2-phenyl-[1-(4-pyrrolidinylethoxy)phenyl]-but-1-ene] | IC50 [1, 3]: 10 to 15 µM |
| – | – | CC/C(=C(\Cc1ccccc1)c1ccc(OCCN2CCCCC2)cc1)c1ccccc1 [Compound 9, 1-Benzyl-2-phenyl-[1-(4-pipyridinylethoxy)phenyl]-but-1-ene] | IC50 [1, 3]: 70 to 80 µM |
| – | – | CC/C(=C(\Cc1ccccc1)c1ccc(OCCN2CCOCC2)cc1)c1ccccc1 [Compound 10, 1-Benzyl-2-phenyl[1-(5-morpholinylethoxy)phenyl]but-1-ene] | IC50 [1, 3]: 1 to 5 µM |
| – | – | CC/C(=C(\Cc1ccccc1)c1ccccc1)c1ccc(OCCN(C)C)cc1 [Compound 11, 1-Benzyl-1-phenyl-2-[(4-dimethylaminoethoxy)phenyl]but-1-ene] | IC50 [1, 3]: 115 to 120 µM |
| 20 to 25 | – | CCC(=C(Cc1ccccc1)c1ccccc1)c1ccc(OCCN(CC)CC)cc1 [Compound 12, 1-Benzyl-1-phenyl-2-[(4-diethylaminoethoxy)phenyl]but-1-ene] | – |
| 20 to 25 | – | CCC(=C(Cc1ccccc1)c1ccccc1)c1ccc(OCCN2CCCC2)cc1 [Compound 13, 1-Benzyl-1-phenyl-2-[(4-pyrrolidinylethoxy)phenyl]but-1-ene] | – |
| 50 to 55 | – | CCC(=C(Cc1ccccc1)c1ccccc1)c1ccc(OCCN2CCOCC2)cc1 [Compound 15, 1-Benzyl-1-phenyl-2-[(4-morpholinylethoxy)phenyl]but-1-ene] | – |
| – | – | CC/C(=C(/Cc1ccc(OCCN(C)C)cc1)c1ccccc1)c1ccccc1 [Compound 16] | IC50 [1, 3]: 25 to 30 µM |
| 55 to 60 | – | CCC(=C(Cc1ccccc1OCCN(CC)CC)c1ccccc1)c1ccccc1 [Compound 17, 1,2-Diphenyl-2-[2-(diethylaminoethoxy)benzyl]but-1-ene] | – |
| 140 to 145 | – | CCC(=C(Cc1ccc(OCCN2CCCC2)cc1)c1ccccc1)c1ccccc1 [Compound 18] | – |
| 1 to 10 | – | CCC(Cc1ccccc1)=C(c1ccc(OCCN2CCCC2)cc1)c1ccc(OC(=O)C(C)(C)C)cc1 [Compound 21] | – |
| 10 to 50 | – | CCC(Cc1ccccc1)=C(c1ccc(OCCN(C)C)cc1)c1ccc(OC(=O)C(C)(C)C)cc1 [Compound 22] | – |
| 0.1 to 1 | – | CCC(Cc1ccccc1)=C(c1ccc(OCCN2CCOCC2)cc1)c1ccc(OC(=O)C(C)(C)C)cc1 [Compound 23] | – |

| IC50 ([1]; read-out: IC50 Range) [µM] | IC50 [1, 4] [µM] | Compound | further results |
| --- | --- | --- | --- |
| – | – | CCC(Cc1ccccc1)=C(c1ccc(O)cc1)c1ccc(OCCN(C)C)cc1 [Compound 24, 4-{2-Benzyl-1-[4-(2-dimethylamino-ethoxy)-phenyl]-but-1-enyl}-phenol] | IC50 [1, 3]: 0.01 to 0.1 µM |
| – | – | CC/C(Cc1ccccc1OC)=C(/c1ccc(OCCN2CCCC2)cc1)c1ccc(OC(=O)C(C)(C)C)cc1 [Compound 26, 2,2-Dimethyl-propionic acid 4-{2-(2-methoxybenzyl)-1-[4-(2-pyrrolidin-1-yl-ethoxy)-phenyl]-but-1-enyl}-phenyl ester] | IC50 [1, 3]: 1 to 10 µM |
| – | 33.7 | CCC(Cc1ccccc1)=C(c1ccccc1)c1ccc(NCCOC)cc1 [Compound 27, [4-(2-Benzyl-1-phenylbut-1-enyl)-phenyl]-(2-methoxyethyl)-amine] | – |
| – | 36.8 | CCOCCNc1ccc(C(=C(CC)Cc2ccccc2)c2ccccc2)cc1 [Compound 28, [4-(2-Benzyl-1-phenylbut-1-enyl)-phenyl]-(2-ethoxyethyl)-amine] | – |
| – | 46.9 | CCCOCCNc1ccc(C(=C(CC)Cc2ccccc2)c2ccccc2)cc1 [Compound 29, [4-(2-Benzyl-1-phenylbut-1-enyl)-phenyl]-(2-propoxyethyl)-amine] | – |
| – | 35.4 | CCC(Cc1ccccc1)=C(c1ccccc1)c1ccc(NCCCOC)cc1 [Compound 30, [4-(2-Benzyl-1-phenylbut-1-enyl)-phenyl]-(3-methoxypropyl)-amine] | – |
| – | 14.1 | CCOCCCNc1ccc(/C(=C(/CC)Cc2ccccc2)c2ccccc2)cc1 [Compound 31, [4-(2-benzyl-1-phenylbut-1-enyl)-phenyl]-(3-ethoxypropyl)-amine] | – |
| – | 23.3 | CCCOCCCNc1ccc(C(=C(CC)Cc2ccccc2)c2ccccc2)cc1 [Compound 32, [4-(2-Benzyl-1-phenylbut-1-enyl)-phenyl]-(3-propoxypropyl)-amine] | – |
| – | 39.5 | CCC(Cc1ccccc1)=C(c1ccccc1)c1ccc(NCCO)cc1 [Compound 33, 2-[4-(2-Benzyl-1-phenylbut-1-enyl)-phenylamino]-ethanol] | – |
| – | 34 | CCC(Cc1ccccc1)=C(c1ccccc1)c1ccc(NCCCO)cc1 [Compound 34, 3-[4-(2-Benzyl-1-phenylbut-1-enyl)-phenylamino]-propan-1-ol] | – |
| – | 24.9 | CCC(Cc1ccccc1)=C(c1ccccc1)c1ccc(OCCO)cc1 [Compound 35, 2-[4-(2-Benzyl-1-phenylbut1enyl)-phenoxy]-ethanol] | – |
| – | 20.2 | CCC(Cc1ccccc1)=C(c1ccccc1)c1ccc(OCCCO)cc1 [Compound 36, 3-[4-(2-Benzyl-1-phenylbut-1-enyl)-phenoxy]-propan-1-ol] | – |
| – | 34.4 | CCC(Cc1ccccc1)=C(c1ccc(NCCOC)cc1)c1ccc(OC)cc1 [Compound 37, {4-[2-Benzyl-1-(4-methoxyphenyl)-but-1-enyl]-phenyl}-(2-methoxyethyl)-amine] | – |
| – | 51.8 | CCC(Cc1ccc(OC)cc1)=C(c1ccc(NCCOC)cc1)c1ccc(OC)cc1 [Compound 38, {4-[2-(4-methoxybenzyl)-1-(4-methoxyphenyl)-but-1-enyl]-phenyl}-(2-methoxyethyl)-amine] | – |
| – | 49.5 | CCC(Cc1ccc(OC)cc1)=C(c1ccccc1)c1ccc(NCCOC)cc1 [Compound 39, {4-[2-(4-methoxybenzyl)-1-phenylbut-1-enyl]-phenyl}-(2-methoxyethyl)-amine] | – |
| – | 41.7 | CCC(Cc1ccccc1)=C(c1ccccc1)c1ccc(OCCOC)cc1 [Compound 40, 1-(2-Benzyl-1-phenylbut-1-enyl)-4-(2-methoxyethoxy)-benzene] | – |
| – | 32.4 | CCC(Cc1ccc(O)cc1)=C(c1ccccc1)c1ccc(NCCOC)cc1 [Compound 41, 4-{2-Ethyl-3-[4-(2-methoxyethylamino)-phenyl]-3-phenylallyl}-phenol] | – |
| – | 13.7 | CCC(Cc1ccccc1)=C(c1ccccc1)c1ccc(NCCN(C)C)cc1 [Compound 42, N′-[4-(2-Benzyl-1-phenylbut-1-enyl)-phenyl]-N,N-dimethylethane-1,2-diamine] | – |
